# “And” between values parts separate entries of the source, which are not always exact repeats. Identical values can stand only once. Inconclusive results and toxic doses are left out.
# System: C57BL/6 mice, intracerebral ependymoblastoma, median survival T/C
# Experiment: NCI In Vivo Anticancer Drug Screen. Data for tumor model Ependymoblastoma (intracerebral) in C57BL/6 mice
# Conditions: endpoint: median survival time, higher = longer survival
# Method: The antitumor activity of compounds was measured in mice bearing transplantable tumors. Survival or tumor size were measured and the results are expressed as the measurement made in the treated group (T) divided by the measurement made in the vehicle treated control group (C). The tumor model used in this assay is Ependymoblastoma (intracerebral) in C57BL/6 mice
# [1] = dose: 2.0 mg/kg/injection, schedule: Q01DX005 (ip), vehicle: saline with Tween-80
# [2] = dose: 4.0 mg/kg/injection, schedule: Q01DX005 (ip), vehicle: saline with Tween-80
smiles,measurement,setting,value
CCOC(=O)CC(SP(=S)(OC)OC)C(=O)OCC (stereo not drawn),T/C,"dose: 24.0 mg/kg/injection, schedule: Q01DX005 (ip), vehicle: saline with Tween-80",101 % of control and 104 % of control
same,T/C,"dose: 45.0 mg/kg/injection, schedule: Q01DX005 (ip), vehicle: saline with Tween-80",101 % of control and 108 % of control
same,T/C,"dose: 50.0 mg/kg/injection, schedule: Q01DX005 (ip), vehicle: suspension in saline",102 % of control
same,T/C,"dose: 90.0 mg/kg/injection, schedule: Q01DX005 (ip), vehicle: saline with Tween-80",95 % of control and 116 % of control
same,T/C,"dose: 100.0 mg/kg/injection, schedule: Q01DX005 (ip), vehicle: suspension in saline",103 % of control
same,T/C,"dose: 180.0 mg/kg/injection, schedule: Q01DX005 (ip), vehicle: saline with Tween-80",104 % of control
same,T/C,"dose: 200.0 mg/kg/injection, schedule: Q01DX005 (ip), vehicle: suspension in saline",99 % of control
CO[C@H]1C[C@@H]2CC[C@@H](C)[C@@](O)(O2)C(=O)C(=O)N2CCCC[C@H]2C(=O)O[C@H]([C@H](C)C[C@@H]2CC[C@@H](O)[C@H](OC)C2)CC(=O)[C@H](C)C=C(C)[C@@H](O)[C@@H](OC)C(=O)[C@H](C)C[C@H](C)/C=C/C=C/C=C1C,T/C,"dose: 3.12 mg/kg/injection, schedule: Q01DX009 (ip), vehicle: saline with Tween-80",111 % of control
same,T/C,"dose: 6.25 mg/kg/injection, schedule: Q01DX009 (ip), vehicle: saline with Tween-80",120 % of control
same,T/C,"dose: 100.0 mg/kg/injection, schedule: Q01DX009 (ip), vehicle: saline with Tween-80",157 % of control
same,T/C,"dose: 200.0 mg/kg/injection, schedule: Q01DX009 (ip), vehicle: saline with Tween-80",92 % of control
COc1cccc2c1C(=O)c1c(O)c3c(c(O)c1C2=O)C[C@@](O)(/C(C)=N/NC(=O)c1ccccc1)C[C@@H]3OC1CC(N)C(O)C(C)O1 (stereo partly drawn),T/C,"dose: 1.0 mg/kg/injection, schedule: Q01DX009 (ip), vehicle: saline",108 % of control
same,T/C,[1],100 % of control
same,T/C,"dose: 2.0 mg/kg/injection, schedule: Q01DX009 (ip), vehicle: saline",99 % of control
same,T/C,[2],103 % of control
same,T/C,"dose: 4.0 mg/kg/injection, schedule: Q01DX009 (ip), vehicle: saline",113 % of control
N[C@H](C(=O)O)[C@@H]1CC(Cl)=NO1,T/C,"dose: 1.0 mg/kg/injection, schedule: Q01DX005 (ip), vehicle: saline with Tween-80",93 % of control
same,T/C,[1],94 % of control
same,T/C,[2],113 % of control
same,T/C,"dose: 8.0 mg/kg/injection, schedule: Q01DX005 (ip), vehicle: saline with Tween-80",108 % of control
same,T/C,"dose: 8.0 mg/kg/injection, schedule: Q12HX002 (ip), vehicle: saline",118 % of control
same,T/C,"dose: 16.0 mg/kg/injection, schedule: Q01DX001 (ip), vehicle: saline",100 % of control and 114 % of control
same,T/C,"dose: 16.0 mg/kg/injection, schedule: Q12HX002 (ip), vehicle: saline",97 % of control
same,T/C,"dose: 32.0 mg/kg/injection, schedule: Q01DX001 (ip), vehicle: saline",101 % of control
same,T/C,"dose: 32.0 mg/kg/injection, schedule: Q12HX002 (ip), vehicle: saline",113 % of control
same,T/C,"dose: 64.0 mg/kg/injection, schedule: Q01DX001 (ip), vehicle: saline",103 % of control and 113 % of control
same,T/C,"dose: 64.0 mg/kg/injection, schedule: Q01DX001 (oral), vehicle: saline",93 % of control and 105 % of control
same,T/C,"dose: 64.0 mg/kg/injection, schedule: Q12HX002 (ip), vehicle: saline",116 % of control
same,T/C,"dose: 128.0 mg/kg/injection, schedule: Q01DX001 (ip), vehicle: saline",106 % of control and 108 % of control
same,T/C,"dose: 128.0 mg/kg/injection, schedule: Q01DX001 (oral), vehicle: saline",98 % of control and 106 % of control
same,T/C,"dose: 128.0 mg/kg/injection, schedule: Q12HX002 (ip), vehicle: saline",108 % of control
same,T/C,"dose: 256.0 mg/kg/injection, schedule: Q01DX001 (ip), vehicle: saline",106 % of control and 108 % of control
same,T/C,"dose: 256.0 mg/kg/injection, schedule: Q01DX001 (oral), vehicle: saline",102 % of control and 117 % of control
same,T/C,"dose: 512.0 mg/kg/injection, schedule: Q01DX001 (oral), vehicle: saline",106 % of control and 121 % of control
same,T/C,"dose: 1024.0 mg/kg/injection, schedule: Q01DX001 (oral), vehicle: saline",110 % of control and 115 % of control
O=C1NC2(CCCCC2)C(=O)N1CCN(CCCl)CCCl,T/C,"dose: 0.75 mg/kg/injection, schedule: Q01DX009 (ip), vehicle: Klucel (hydroxypropylcellulose) (HPC)",101 % of control
same,T/C,"dose: 1.0 mg/kg/injection, schedule: Q01DX005 (ip), vehicle: Klucel (hydroxypropylcellulose) (HPC)",101 % of control
same,T/C,"dose: 1.0 mg/kg/injection, schedule: Q01DX005 (ip), vehicle: saline",105 % of control
same,T/C,"dose: 1.5 mg/kg/injection, schedule: Q01DX009 (ip), vehicle: Klucel (hydroxypropylcellulose) (HPC)",100 % of control
same,T/C,"dose: 2.0 mg/kg/injection, schedule: Q01DX005 (ip), vehicle: Klucel (hydroxypropylcellulose) (HPC)",105 % of control
same,T/C,"dose: 2.0 mg/kg/injection, schedule: Q01DX005 (ip), vehicle: saline",93 % of control and 108 % of control
same,T/C,"dose: 3.0 mg/kg/injection, schedule: Q01DX009 (ip), vehicle: Klucel (hydroxypropylcellulose) (HPC)",106 % of control
same,T/C,"dose: 4.0 mg/kg/injection, schedule: Q01DX005 (ip), vehicle: Klucel (hydroxypropylcellulose) (HPC)",102 % of control
same,T/C,"dose: 6.25 mg/kg/injection, schedule: Q01DX005 (ip), vehicle: Klucel (hydroxypropylcellulose) (HPC)",119 % of control
same,T/C,"dose: 8.0 mg/kg/injection, schedule: Q01DX005 (ip), vehicle: Klucel (hydroxypropylcellulose) (HPC)",94 % of control and 107 % of control
same,T/C,"dose: 12.5 mg/kg/injection, schedule: Q01DX005 (ip), vehicle: Klucel (hydroxypropylcellulose) (HPC)",114 % of control
same,T/C,"dose: 16.0 mg/kg/injection, schedule: Q01DX005 (ip), vehicle: Klucel (hydroxypropylcellulose) (HPC)",97 % of control
same,T/C,"dose: 32.0 mg/kg/injection, schedule: Q01DX005 (ip), vehicle: saline",111 % of control

# — PubChem BioAssay AID222 (DTP/NCI, 2004)
